# Laboratory results: article PMC10394516, “The pharmacokinetic profile of brensocatib and its effect on pharmacodynamic biomarkers including NE, PR3, and CatG in various rodent species” (Frontiers in Pharmacology, 2023)
# Key:
# PR3 = test system: PR3; design: method as in Cipolla et al., 2023; conditions: Phase 2 trial in NCFBE (WILLOW); ref Cipolla et al., 2023; cited from earlier work
# NE = test: Bone marrow NE activity after repeated dosing, Wistar rats; assay type: in vivo; conditions: for Reduction of NE activity vs vehicle / Change From Vehicle Control (%) NE: 7 days
# Protocol: Briefly, animals were weighed and randomized into different treatment groups. In total, three different dosing levels of brensocatib were tested in each species and strain; each QD dosing level was equivalent to 1.5-times the matching daily BID dose. For BID dosing, the second daily dose was administered 8-h post the morning dose. C57BL/6 mice were dosed either BID or QD for 7 consecutive days at 0/0, 0.5/0.75, 2/3, and 20/30 mg/kg/day (BID/QD). BALB/c mice were dosed for 7 consecutive days at 0/0, 0.2/0.3, 2/3, and 20/30 mg/kg/day (BID/QD). SD rats were dosed for 9 consecutive days at 0/0, 0.2/0.3, 2/3, and 20/30 mg/kg/day (BID/QD). Wistar rats were dosed for 7 consecutive days at 0/0, 0.2/0.3, 2/3, and 20/30 mg/kg/day (BID/QD).
# At the completion of the study, animals were sacrificed 16–24 h post their final dose. The hind limb bones (femurs and tibias) were collected at necropsy for bone marrow analysis of NSP activities by kinetic enzymatic assays ([Basso et al., 2022]). See section Quantification of Bone Marrow NSP Activities for details.
# (§1) For the mice, each animal had the femurs and tibias of both hind limbs harvested. For the rat, the femur and tibia from a single hind limb per animal was harvested. Bones were kept on wet ice until processing for bone marrow collection. In brief, bone cutters were used to cut the epiphysis (knobby ends) off the long bones to expose the bone marrow filled cavity. Each bone cavity was then flushed with 5 mL/bone (mouse) or 10 mL/bone (rat) of ice-cold RPMI media through a […] and collected in a 50-mL conical tube. Cells were spun down at 2,500 × g at 4°C for 5 min and the supernatant was aspirated. After which, bone marrow cells were lysed with 1X red blood cell (RBC) lysis buffer (Abcam, ab204733) to eliminate contaminating RBCs and washed with PBS to remove any residual RBC lysis buffer. The resulting white blood cells (WBC) were subsequently lysed with 1% (v/v) Triton X-100 in PBS. Lysates were added to 96-well plates and stored at −80°C until NSP analyses.
# (§2) Bone marrow lysates prepared as described above were diluted and plated onto 96-well assay plates to quantify NSP activities as described previously ([Basso et al., 2022]). Briefly, peptide substrates for NE (N-Methoxysuccinyl-Ala-Ala-Pro-Val-7-amido-4-methylcoumarin; Sigma; St. Louis, MO; Excitation/Emission at 350/450 nm), PR3 ((7-Methoxycoumarin-4-yl)acetyl-lysyl-(picolinoyl)-Tyr-Asp-Ala-Lys-Gly-Asp-N-3-(2-4-dinitrophenyl)-2-3-diaminopropyonyl-NH2); GenScript; Piscataway, NJ; Excitation/Emission at 340/430 nm), and CatG (N-Succinyl-Ala-Ala-Pro-Phe p nitroanilide; Sigma; Absorbance at 405 nm) were added at a final assay concentration of 100 μM, 40 μM, and 200 μM, respectively, and either fluorescence or absorbance was quantified using a Synergy microplate reader (BioTek; Winooski, VT). The specific NSP activity in each sample was calculated as the total activity minus the activity in the presence of a specific NSP inhibitor (if used), including elastase inhibitor (Abcam) for NE, sivelestat (Abcam) for PR3, and cathepsin G inhibitor I (Cayman Chemical; Ann Arbor, MI) for CatG. NSP concentrations were interpolated based on their activities relative to the standard curves created using active human NE protein (Sigma), active human PR3 protein (Sigma), and active human CatG protein (Sigma), respectively. Due to unavailability of commercial mouse and/or rat NE, PR3, and CatG proteins, the corresponding human proteins were used instead since their catalytic ability is considered to be conserved across species. A portion of each cell lysate sample was retained for protein quantification using a Pierce™ BCA Protein Assay Kit (Thermo Fisher). The NSP activities were normalized for the cell lysate protein concentrations.
# The Pierce™ BCA Protein Assay Kit was used to measure the total protein of the samples after lysis to allow for subsequent normalization. […]
# CatG [1] = test: PD onset study, bone marrow CatG activity, C57BL/6 mice; assay type: in vivo; conditions: for Percent change from vehicle CatG: bone marrow, 5 mg/kg BID oral
# Protocol: A 14-day PD onset study was performed in female C57BL/6 mice dosed BID. Mice were dosed by oral gavage either with vehicle (0 mg/kg) or 5 mg/kg brensocatib (BID; 10 mg/kg/day) for 1, 4, 7, 10, or 14 consecutive days. Plasma was collected from animals during the first 24 h of dosing at 1, 2, 8, 9, 10, and 24 h post the initial dose. Note the 8- and 24-h plasma samples were prior to the afternoon dose and the second day dose (if applicable), respectively. Plasma was used for PK analysis via LC-MS/MS. On prescribed days, animals were sacrificed 16 h post final dose, and the hind bones (femurs and tibias) were collected at necropsy for bone marrow analysis of NSP activities by kinetic enzymatic assays.
# as §1, §2
# (§3) The Pierce™ BCA Protein Assay Kit was used to measure the total protein of the samples after lysis to allow for subsequent normalization. The manufacturer’s instructions for use were followed when performing this assay on a portion of the sample lysates which were diluted in PBS, the same diluent as used for preparation of the standard. Plates were read on the Biotek Synergy plate reader with Gen5 software.
# CatG [2] = test: PD recovery study, bone marrow CatG activity, C57BL/6 mice; assay type: in vivo; conditions: for Percent change from vehicle CatG: bone marrow
# Protocol: A PD recovery study was performed in female C57BL/6 mice dosed BID for 8 consecutive days. Mice were dosed by oral gavage either with vehicle (0 mg/kg) or 5 mg/kg brensocatib (BID; 10 mg/kg/day). After 8 consecutive days of dosing, the animals were maintained without further treatment until prescribed sacrifice (days: 1, 3, 6, 8, and 10 days post final dose). Plasma was collected from animals during the first 24 h of dosing at −0.5 (half-hour prior to dosing), 1, 8, 9, and 24 h post initial dose. Note that the 8- and 24-h plasma samples were prior to the afternoon dose and prior to the second day dose, respectively. Plasma was used for PK analysis via LC-MS/MS. On prescribed days, animals were sacrificed, and the hind limb bones (femurs and tibias) were collected at necropsy for bone marrow analysis of NSP activities by kinetic enzymatic assays.
# as §1, §2, §3
# [3] = 5 mg/kg BID, curve fit with free min and max
# [4] = after 8 days of 5 mg/kg BID, curve fit with free min and max
compound,measurement,setting,value
Cn1c(=O)oc2ccc(-c3ccc(C[C@@H](C#N)NC(=O)[C@@H]4CNCCCO4)cc3)cc21 [brensocatib],sputum PR3 activity,PR3,Dose-dependent reductions
same,Reduction of NE activity vs vehicle,NE; BID highest dose (20 mg/kg/day),19%
same,Reduction of NE activity vs vehicle,NE; QD highest dose (30 mg/kg/day),19%
same,"Combined BID and QD percent reduction, NE",NE; highest dose level 20/30 (BID/QD) mg/kg/day,19%
same,Change From Vehicle Control (%) NE,NE; oral BID 0.2 mg/kg/day,−6% (p = 0.9661)
same,Change From Vehicle Control (%) NE,NE; oral BID 2 mg/kg/day,−6% (p = 0.9676)
same,Change From Vehicle Control (%) NE,NE; oral BID 20 mg/kg/day,−19% (p = 0.4767)
same,Change From Vehicle Control (%) NE,NE; oral QD 0.3 mg/kg/day,+8% (p = 0.9636)
same,Change From Vehicle Control (%) NE,NE; oral QD 3 mg/kg/day,+17% (p = 0.7823)
same,Change From Vehicle Control (%) NE,NE; oral QD 30 mg/kg/day,−19% (p = 0.7283)
same,"Onset: Maximum reduction (plateau), CatG",CatG [1]; [3],97%
same,"Onset: Time to reach 50% reduction, CatG",CatG [1]; [3],2.8 days
same,"Onset: Time to reach max reduction, CatG",CatG [1]; [3],8.1 days
same,Percent change from vehicle CatG,CatG [1]; after 1 day of treatment,−26% (0.0727)
same,Percent change from vehicle CatG,CatG [1]; after 4 days of treatment,−81% (p < 0.0001)
same,Percent change from vehicle CatG,CatG [1]; after 7 days of treatment,−99% (p < 0.0001)
same,Percent change from vehicle CatG,CatG [1]; after 10 days of treatment,−93% (p < 0.0001)
same,Percent change from vehicle CatG,CatG [1]; after 14 days of treatment,−99% (p < 0.0001)
same,"Recovery: Time to reach 50% recovery, CatG",CatG [2]; [4],3.3 days
same,"Recovery: Time to reach 90% recovery, CatG",CatG [2]; [4],5.2 days
same,"Recovery: Time to reach 95% recovery, CatG",CatG [2]; [4],5.5 days
same,"Recovery: Time to reach 100% recovery, CatG",CatG [2]; [4],5.8 days
same,Percent change from vehicle CatG,CatG [2]; 1 day recovery after 8 days of 5 mg/kg BID,−93% (p < 0.0001)
same,Percent change from vehicle CatG,CatG [2]; 3 days recovery after 8 days of 5 mg/kg BID,−60% (p < 0.0001)
same,Percent change from vehicle CatG,CatG [2]; 6 days recovery after 8 days of 5 mg/kg BID,−14% (p = 0.2431)
same,Percent change from vehicle CatG,CatG [2]; 8 days recovery after 8 days of 5 mg/kg BID,+26% (p = 0.0133)
same,Percent change from vehicle CatG,CatG [2]; 10 days recovery after 8 days of 5 mg/kg BID,+38% (p < 0.0001)
